Measured values taken from patent US12447167B2, “GM-CSF-producing t-cell control agent and Th1/Th2 immune balance regulator” (National Center of Neurology and Psychiatry, priority 2014, dated 2025).

Columns and labels:
[1] = system: GM-CSF-producing CD4-positive memory T-cells; assay: GM-CSF-producing CD4-positive memory T-cells in PBMCs of normal subjects after single oral dose (FACS); format: in vivo, human
Protocol: A single dose of compound 31, which is a synthetic glycolipid of the present invention, described in the first aspect, i.e., (2S,3S,4R)-1-O-(α-D-galactosyl)-2-(N-tetracosanoylamino)-1,3,4-nonanetriol represented by the following formula (III), was orally administered to each of subjects of 4 cohorts (A, B, C, and D cohorts) each consisting of 3 normal subjects shown in Table 1 above after obtainment of informed consent.
The dose was set to 0.3 mg per person for A cohort, 1 mg per person for B cohort, 3 mg per person for C cohort, and 10 mg per person for D cohort.
Subsequently, T-cell subfractions were prepared from the peripheral blood of each subject by using the density gradient centrifugation method. First, a total of 20 mL of blood was collected from the vein of each subject 24 hours (1st day), 48 hours (2nd day), 72 hours (3rd day), and 168 hours (7th day) after the administration of compound 31 by using two 10-mL heparin sodium-containing vacuum blood collection tubes. For a control, 20 mL of blood was similarly collected from the vein of each subject one day before the administration of compound 31.
Next, 4 mL of Ficoll-Paque Plus (GE Healthcare Biosciences Corp.) was placed in each of four 15-mL conical tubes, and 10 mL of blood diluted twice with phosphate buffered saline (PBS) was gently layered thereon. Then, density gradient centrifugation was performed by centrifugation at 1800 rpm at ordinary temperature for 30 minutes. After the centrifugation, a supernatant containing plasma and platelet was discarded, and lymphocytes present at the boundary layer between the supernatant layer and the Ficoll-Paque Plus layer were recovered into a fresh 50-mL conical tube. The 50-mL conical tube was filled by adding PBS thereto, followed by centrifugation at 1800 rpm at ordinary temperature for 5 minutes. […] After a supernatant was removed by suction again, a single cell suspension was prepared by adding 1 mL of AIM-V medium (Life Technologies Corp.), and then, the number of cells was measured with a counting chamber. […]

[2] = Disposition after single oral dose, rat; format: in vivo; conditions: male rat, 10 mg/kg single oral, 14C-labeled, fasting
Protocol: After a single dose of compound 31 labeled with ^14C was orally administered at a predetermined dose to each of a male mouse, a male rat, and a male cynomolgus monkey under fasting conditions, the concentration in blood was measured after a lapse of a given time, and parameters such as maximum plasma concentration Cmax, time Tmax to reach the maximum plasma concentration, half-life t1/2, area under curve AUC0-∞, mean retention time MRT0-∞, and bioavailability BA were calculated. The concentration in blood in humans (normal subjects) was measured and each of the parameters was calculated, in the similar manner as above except that ^14C-unlabeled compound 31 was used.
In the tables, “N.D.” means not detected.

AUC(0-inf) ([2]; blood): 3330 ng·h/mL
AUC(0-t) ([2]; blood): 3130 ng·h/mL
half-life ([2]; blood): 26 h
MRT inf ([2]; blood, read-out: MRT0-∞): 32.4 h
BA [2]: 0.51%
Rate of absorption [2]: 0.96%
concentration in blood ([2]; 4 h): 31
concentration in blood ([2]; 8 h): 128
concentration in blood ([2]; 12 h): 101
concentration in blood ([2]; 24 h): 47.1
concentration in blood ([2]; 48 h): 18.5
concentration in blood ([2]; 72 h): 10.2
Cmax ([2]; plasma): 128 ng/mL
Tmax ([2]; plasma): 8 h
Structure (SMILES): CCCCCCCCCCCCCCCCCCCCCCCC(=O)NC(COC1OC(CO)C(O)C(O)C1O)[C@H](O)C(O)CCCCC (stereo in doubt) [compound 31, (2S,3S,4R)-1-O-(α-D-galactosyl)-2-(N-tetracosanoylamino)-1,3,4-nonanetriol]
suppressive effects on CD4-positive memory T-cells ([1]; A cohort, 0.3 mg single oral (low dose)): high suppressive effects
growth of GM-CSF-producing CD4-positive memory T-cells ([1]; C and D cohorts (3 mg, 10 mg), 1 day after administration, transient): promoted
proportion of GM-CSF-producing CD4-positive memory T-cells in PBMCs ([1]; single oral dose, all cohorts (0.3, 1, 3, 10 mg), after administration vs pre-administration value (day-1)): decreased
